Experimental data from US8653027B2, “Method of treatment of type-1 diabetes with humanin analogues” (The Regents of the University of California, priority 2007, dated 2014).
Entries after “also recorded” stand apart in the source; their conditions may differ. Where two headings read alike, the source gives them in different places.

Columns and labels:
IGFBP-3 = IGFBP-3 (Homo sapiens, UniProt P17936); experiment: IGFBP-3 binding
normal (wild-type) MEFs = experiment: Apoptosis ELISA in normal (wild-type) mouse embryonic fibroblasts; format: cell-based; settings: 100 nM peptide, 24 hours
Description: (§1) Mouse embryonic fibroblasts (MEFs) derived from normal (wild-type) and IGFBP3 deficient mice were used to test the effects of humanin and its analogues on survival. Apoptosis was measured after 24 hours with 100 nM of each peptide by ELISA. […] The increased potency seems to result from the lack of IGFBP-3 binding, because there is no additional advantage when IGFBP-3 is not present. Thus, F6A-HNG is distinct from previously described humanin derivatives.

IGFBP-3 deficient MEFs = experiment: Apoptosis ELISA in IGFBP-3 deficient mouse embryonic fibroblasts; format: cell-based; settings: 100 nM peptide, 24 hours
Description: as §1

NONcNZO10/LtJ mice = experiment: IP glucose tolerance test in NONcNZO10/LtJ mice (obesity-induced type 2 diabetes model); format: in vivo, mouse; settings: 25 μg IP twice a day for 14 days
Description: NONcNZO10/LtJ mice are a model for obesity-induced type 2 diabetes. NONcNZO10/LtJ mice were injected IP with 25 μg F6A-HNG twice a day for 14 days. Mice were subjected to 6 hour fast followed by an IP GTT on D15. Baseline glucose measurement was taken and the mice were injected IP with 0.5 mg/g glucose. Glucose was sampled at 0 and 90, 120 min.

NIT cells = experiment: Survival and STAT-3/ERK activation in NIT cells, potency compared to humanin; format: cell-based
NIT-1 insulinoma cells = experiment: Serum starvation-induced apoptosis of NIT-1 cells, histone-associated DNA ELISA; format: cell-based, Mouse; settings: NIT-1 cells serum starved 24 hours, humanin 1 to 10000 nM
Description: Secondary to the pro-survival effect of humanin observed in neuronal cells, we hypothesized that humanin could be a survival factor for neuroendocrine beta cells. Mouse NIT-1 insulinoma cells were serum starved for 24 hours as control, and compared to cultures co-incubated with increasing doses of humanin ranging from 1 to 10000 nM.
Conditions were as follows: NIT-1 cells were purchased from ATCC and maintained in F-12 Ham's medium (F12-K) supplemented with 10% FBS (fetal bovine serum), 10% L-glutamine, Penicillin (100 U/ml) and Streptomycin (100 μg/ml), in 25 cm^2 tissue culture flasks (Greiner, Frickenhausen, Germany). NIT-1 cells were maintained at 37 C in a 5% CO2/95% air mixture and were passaged twice weekly by trypsination (Invitrogen life technologies, Karlsruhe, Germany). For the experiment, NIT-1 cells were seeded in 96-well plates at a density of 0.128×10^5 cells per well. After about 24 hours, medium was changed to FCS-free medium.
Apoptosis was quantified by a specific histone-associated DNA ELISA.

NIT-1 cells = experiment: Caspase 3/7 fluorometric assay (ApoONE) of cytokine-induced apoptosis in NIT-1 cells; format: cell-based, Mouse
Description: Apoptosis is the main form of pancreatic beta cell death in animal models of type 1 diabetes mellitus. […] In this study, we used a caspase 3/7 specific fluorometric assay (ApoONE, Promega) to measure the degree of apoptosis induction by cytokines in NIT-1 cells.
Cells were cultured as described above. For the experiment, NIT-1 cells were seeded in 96-well plates at a density of 0.128×10^5 cells per well. After about 24 hours, medium was changed to FCS-free medium and the cells were exposed to TNF-α (5 ng/mL) or were kept untreated as controls. As expected, TNF-α induced apoptosis in NIT-1 cells at 48 hours.
TNF-α increased apoptosis approximately 40% compared to serum-deprived cells.

ERK1/2 = ERK1/2 phosphorylation in NIT-1 cells by immunoblotting; format: cell-based, Mouse; settings: 100 nM HN, serum free media
Description: (§2) To investigate the mechanism of Humanin-induced beta cell survival, we treated NIT-1 cells with 100 nM HN in serum free media. Cell lysates were harvested and phosphorylated ERK1/2 and STAT3 were assessed by immunoblotting.
(§3) Phosphorylation of ERK (activation) occurred 15 minutes after adding HN. Phosphorylation of STAT3 (activation) was a later event, 4 hours after addition of HN (FIG. 2).

STAT3 = STAT3 phosphorylation in NIT-1 cells by immunoblotting; format: cell-based, Mouse; settings: 100 nM HN, serum free media
Description: as §2, §3

NOD mice [1] = format: in vivo; settings: for glucose tolerance (response to glucose challenge): NOD mice, 0.7 mg/kg/d IP for 6 weeks, fasted overnight, vs saline
Description: As proof of principle, we examined whether a 6-week course of daily IP injected humanin (0.7 mg/kg/d) to euglycemic 9-week-old NOD mice (Taconic) could improve glucose tolerance as compared to saline-injected control mice (n=12/group). […] At the conclusion of the treatment, mice were fasted overnight and divided into groups that were subjected to IP insulin and glucose tolerance testing (n=6/group). […] We additionally harvested serum, pancreata, and various other organs from these mice for histological studies and analysis of serum humanin, IGFBP-3, and other IGF-related peptides.

NOD mice [2] = experiment: Insulitis scoring of pancreatic sections from NOD mice; format: in vivo, mouse; settings: humanin-treated NOD mice vs vehicle-treated control
Source text: To test whether administration of humanin regulates the extent of lymphocyte infiltration into pancreatic islets, fixed and embedded pancreatic tissues were examined. Pancreata from humanin-treated NOD mice were formalin fixed, stained with hematoxylin/eosin, and assessed in a blinded fashion to determine the degree of lymphocyte infiltration. Results were compared to tissues from saline-injected control mice. Three or four randomly selected and nonadjacent sections from each pancreas were scored independently by two blind observers and evaluated for mononuclear cell infiltration. Severity of infiltration was classified based on the degree of lymphocytic infiltration as follows: G0—normal (no infiltration); G1—peri-insulitis (mononuclear cells surrounding islets and ducts but no infiltration of the islet architecture); G2—moderate insulitis (mononuclear cells infiltrating less than 50% of the islet architecture); and G3—severe insulitis (more than 50% of the islet tissue infiltrated by lymphocytes, accompanied by a reduction in insulin staining). See Pastorale et al. (2002) Exp Biol Med (Maywood) 227:282-89.

NOD mice [3] = experiment: Onset of diabetes in NOD mice over 20-week treatment; format: in vivo, mouse; settings: female NOD mice, 0.7 mg/kg/d IP daily from 5 weeks of age, vs saline, 0.7 mg/kg/day
Description: Four-week-old female NOD mice were treated with humanin. Before treatment, mice were tested two to three times per week for nonfasting blood glucose levels. Mice with blood glucose levels higher than 300 mg/dL on three consecutive measurements were considered diabetic. Beginning at 5 weeks of age, two groups of NOD mice (n=25 each) were administered (0.7 mg/kg/d) synthetic humanin by IP injection daily (Bachem). NOD mice injected with the same volume of saline served as negative controls.

Sequence of IGFBP-3 (P17936 28-291, species assumed): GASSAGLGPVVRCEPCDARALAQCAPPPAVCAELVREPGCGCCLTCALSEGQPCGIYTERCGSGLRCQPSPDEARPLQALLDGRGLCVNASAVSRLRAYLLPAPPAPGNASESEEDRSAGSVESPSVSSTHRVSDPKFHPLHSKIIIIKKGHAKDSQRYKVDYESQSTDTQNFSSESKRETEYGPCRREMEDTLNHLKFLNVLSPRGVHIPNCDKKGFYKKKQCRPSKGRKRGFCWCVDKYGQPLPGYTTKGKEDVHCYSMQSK

F6A-HNG: humanin analogue, SEQ ID NO:16 MAPRGASCLLLLTGEIDLPVKRRA (synthetic humanin (HN) analogue F6A-HNG)
IGFBP-3 binding (IGFBP-3): does not bind IGFBP-3; also recorded: devoid of IGFBP-3 binding activity | potency on survival (apoptosis) in normal MEFs (normal (wild-type) MEFs): more potent | potency on survival (apoptosis) in IGFBP-3 deficient MEFs (IGFBP-3 deficient MEFs): equal potency | glucose levels at 90 and 120 min (NONcNZO10/LtJ mice; IP GTT on D15): significantly lower | glucose tolerance (NONcNZO10/LtJ mice; IP GTT on D15 after 6 hour fast, 0.5 mg/g glucose): significantly better glucose tolerance | potency in promoting survival and activating STAT-3 and ERK, compared to humanin (NIT cells): even greater potency

F6AK21A-HNG: humanin analogue, SEQ ID NO:17 MAPRGASCLLLLTGEIDLPVARRA (synthetic humanin (HN) analogue F6AK21A-HNG)
potency in promoting survival and activating STAT-3 and ERK, compared to humanin (NIT cells): even greater potency

HNG: humanin analogue, SEQ ID NO:2 MAPRGFSCLLLLTGEIDLPVKRRA (synthetic humanin (HN) analogue S14G-HN (HNG))
potency on survival (apoptosis) in IGFBP-3 deficient MEFs (IGFBP-3 deficient MEFs): equal potency

Humanin: 24 amino acid peptide, SEQ ID NO:1 MAPRGFSCLLLLTSEIDLPVKRRA
protection from serum-starvation induced apoptosis (NIT-1 insulinoma cells): potently protected beta cells from serum-starvation induced apoptosis in a dose dependent manner | protection from serum-starvation induced apoptosis (NIT-1 insulinoma cells; listed as humanin): reduced the level of apoptosis | protection from serum starvation induced apoptosis (caspase 3/7 assay) (NIT-1 cells; FCS-free medium, humanin 10 to 1000 nM): protects beta cells from cytokine-induced apoptosis and serum starvation induced apoptosis in a dose-dependent manner | protection from TNF-α induced apoptosis (NIT-1 cells; TNF-α 5 ng/mL, 48 hours, humanin 10 to 1000 nM, caspase 3/7 assay): protected beta cells from TNF-α induced apoptosis in a dose dependent manner | ERK activation (ERK1/2): activates ERK | time of phosphorylation of ERK (activation) after adding HN (ERK1/2): 15 min | STAT3 activation (STAT3): activates ERK and STAT3 | time of phosphorylation of STAT3 (activation) after addition of HN (STAT3): 4 h | glucose tolerance (response to glucose challenge) (NOD mice [1]): improves glucose tolerance | glucose tolerance (response to glucose challenge) (NOD mice [1]; listed as humanin): non-diabetic response to glucose challenge | tolerability of daily IP injections (NOD mice [1]; mouse, in vivo, ip, 0.7 mg/kg/day): tolerated well | total number of islets infiltrated by lymphocytes (NOD mice [2]): significantly decreased | severity of lymphocyte infiltration (insulitis) (NOD mice [2]; grades G0-G3): significantly decreased; also recorded: decreased insulitis severity | onset of diabetes (NOD mice [3]): delays onset of diabetes | onset of diabetes (NOD mice [3]; listed as humanin): significantly delayed the onset of diabetes | IGFBP-3 binding (IGFBP-3): binds IGFBP-3

TNF-α [reference compound]
increase of apoptosis compared to serum-deprived cells (NIT-1 cells; TNF-α 5 ng/mL, 48 hours): approximately 40%

Z-HN: humanin analogue, SEQ ID NO:18 MAKRGLNCLPHQVSEIDLSVQKRI (synthetic humanin (HN) analogue Z-HN)
potency in promoting survival and activating STAT-3 and ERK, compared to humanin (NIT cells): two-fold greater potency than humanin
